Test results from ChEMBL document CHEMBL4311976, “Design, synthesis and biological evaluation of novel 7H-pyrrolo[2,3-d]pyrimidine derivatives as potential FAK inhibitors and anticancer agents” (Eur J Med Chem, 2019).

Experiments:
[1] = target: Receptor-type tyrosine-protein kinase FLT3 (Homo sapiens) (UniProt P36888); test: Inhibition of recombinant His-tagged human FLT3 (564 to 958 residues) expressed in baculovirus expression system at 0.5 uM using tyr 02 as substrate in presence of ATP at Km concentration after 1 hr by Z'-LYTE assay relative to control
A549 [2] = test: Induction of apoptosis in human A549 cells assessed as early apoptotic cells at 1 uM after 72 hrs by Annexin V-FITC/propidium iodide staining-based flow cytometric analysis (reference value: 2.40%); format: functional
[3] = target: RAC-alpha serine/threonine-protein kinase (Homo sapiens) (UniProt P31749); test: Inhibition of recombinant full-legth His-tagged human AKT1 expressed in baculovirus expression system at 0.5 uM using Ser/Thr 06 as substrate in presence of ATP at Km concentration after 1 hr by Z'-LYTE assay relative to control
CYP2D6 = CYP2D6 (Homo sapiens, UniProt P10635); test: Inhibition of CYP2D6 in human pooled liver microsomes at 10 uM using dextromethorphan as substrate preincubated for 10 mins followed by NADPH addition and measured after 15 mins by LC/MS/MS analysis relative to control; format: ADME; details: probe dextromethorphan
[4] = Metabolic stability in human liver microsomes assessed as compound remaining at 1 uM measured up to 1 hr in absence of NADPH by LC-MS/MS analysis; format: ADME, Microsome; details: read-out: Stability
[5] = Half life in rat liver microsomes at 1 uM measured up to 1 hr by LC-MS/MS analysis; format: ADME, Microsome
CYP3A4 = CYP3A4 (Homo sapiens, UniProt P08684); test: Inhibition of CYP3A4 in human pooled liver microsomes at 10 uM using midazolam as substrate preincubated for 10 mins followed by NADPH addition and measured after 15 mins by LC/MS/MS analysis relative to control; format: ADME; details: probe midazolam
[6] = Half life in human liver microsomes at 1 uM measured up to 1 hr by LC-MS/MS analysis; format: ADME, Microsome
A549 [7] = test: Induction of apoptosis in human A549 cells assessed as necrotic cells at 1 uM after 72 hrs by Annexin V-FITC/propidium iodide staining-based flow cytometric analysis (reference value: 1.70%); format: functional
A549 [8] = test: Induction of apoptosis in human A549 cells assessed as late apoptotic cells at 9 uM after 72 hrs by Annexin V-FITC/propidium iodide staining-based flow cytometric analysis (reference value: 1.24%); format: functional
A549 [9] = test: Induction of apoptosis in human A549 cells assessed as necrotic cells at 3 uM after 72 hrs by Annexin V-FITC/propidium iodide staining-based flow cytometric analysis (reference value: 1.70%); format: functional

CYP2D6, sequence (P10635 whole entry): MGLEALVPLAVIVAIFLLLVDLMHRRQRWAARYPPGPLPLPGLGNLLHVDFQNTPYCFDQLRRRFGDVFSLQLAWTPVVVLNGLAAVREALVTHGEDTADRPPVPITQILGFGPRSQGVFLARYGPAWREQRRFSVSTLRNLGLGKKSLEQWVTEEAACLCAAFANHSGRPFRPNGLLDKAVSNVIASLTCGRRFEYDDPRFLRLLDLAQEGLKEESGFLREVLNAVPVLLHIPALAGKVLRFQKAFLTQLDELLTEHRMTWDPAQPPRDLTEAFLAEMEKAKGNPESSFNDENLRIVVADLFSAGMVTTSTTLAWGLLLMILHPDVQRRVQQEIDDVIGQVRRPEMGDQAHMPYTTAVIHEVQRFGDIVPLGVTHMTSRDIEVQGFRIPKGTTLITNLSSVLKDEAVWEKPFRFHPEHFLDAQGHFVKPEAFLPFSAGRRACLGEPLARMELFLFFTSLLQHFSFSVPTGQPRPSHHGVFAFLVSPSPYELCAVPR
RAC-alpha serine/threonine-protein kinase (Homo sapiens), sequence (P31749 whole entry): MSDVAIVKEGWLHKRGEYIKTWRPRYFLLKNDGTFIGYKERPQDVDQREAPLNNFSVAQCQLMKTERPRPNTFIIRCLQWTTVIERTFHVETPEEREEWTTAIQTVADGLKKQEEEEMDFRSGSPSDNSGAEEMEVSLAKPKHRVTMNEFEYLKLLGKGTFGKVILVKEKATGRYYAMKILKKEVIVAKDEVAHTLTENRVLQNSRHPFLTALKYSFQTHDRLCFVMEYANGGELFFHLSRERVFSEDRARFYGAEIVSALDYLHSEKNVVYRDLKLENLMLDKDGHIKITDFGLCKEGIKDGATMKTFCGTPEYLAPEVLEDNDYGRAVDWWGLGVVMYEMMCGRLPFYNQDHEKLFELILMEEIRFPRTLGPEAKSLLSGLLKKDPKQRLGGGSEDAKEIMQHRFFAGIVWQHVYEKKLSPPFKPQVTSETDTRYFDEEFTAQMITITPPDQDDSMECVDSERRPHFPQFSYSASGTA
CYP3A4, sequence (P08684 whole entry): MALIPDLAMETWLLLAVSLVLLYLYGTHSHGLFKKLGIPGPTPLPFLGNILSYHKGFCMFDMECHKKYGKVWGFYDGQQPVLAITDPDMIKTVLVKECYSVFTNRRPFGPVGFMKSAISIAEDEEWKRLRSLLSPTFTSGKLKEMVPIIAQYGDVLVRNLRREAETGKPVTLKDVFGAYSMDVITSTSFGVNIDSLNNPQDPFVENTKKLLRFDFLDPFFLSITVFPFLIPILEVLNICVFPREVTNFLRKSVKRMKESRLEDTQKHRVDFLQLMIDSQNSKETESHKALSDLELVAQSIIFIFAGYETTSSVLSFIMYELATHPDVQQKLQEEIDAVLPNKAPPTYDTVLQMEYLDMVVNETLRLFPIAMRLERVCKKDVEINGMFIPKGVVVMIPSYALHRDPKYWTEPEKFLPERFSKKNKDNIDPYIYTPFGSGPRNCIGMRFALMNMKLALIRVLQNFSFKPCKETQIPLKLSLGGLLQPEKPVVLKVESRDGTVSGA
Receptor-type tyrosine-protein kinase FLT3 (Homo sapiens), sequence (P36888 whole entry, the tested form may be a part): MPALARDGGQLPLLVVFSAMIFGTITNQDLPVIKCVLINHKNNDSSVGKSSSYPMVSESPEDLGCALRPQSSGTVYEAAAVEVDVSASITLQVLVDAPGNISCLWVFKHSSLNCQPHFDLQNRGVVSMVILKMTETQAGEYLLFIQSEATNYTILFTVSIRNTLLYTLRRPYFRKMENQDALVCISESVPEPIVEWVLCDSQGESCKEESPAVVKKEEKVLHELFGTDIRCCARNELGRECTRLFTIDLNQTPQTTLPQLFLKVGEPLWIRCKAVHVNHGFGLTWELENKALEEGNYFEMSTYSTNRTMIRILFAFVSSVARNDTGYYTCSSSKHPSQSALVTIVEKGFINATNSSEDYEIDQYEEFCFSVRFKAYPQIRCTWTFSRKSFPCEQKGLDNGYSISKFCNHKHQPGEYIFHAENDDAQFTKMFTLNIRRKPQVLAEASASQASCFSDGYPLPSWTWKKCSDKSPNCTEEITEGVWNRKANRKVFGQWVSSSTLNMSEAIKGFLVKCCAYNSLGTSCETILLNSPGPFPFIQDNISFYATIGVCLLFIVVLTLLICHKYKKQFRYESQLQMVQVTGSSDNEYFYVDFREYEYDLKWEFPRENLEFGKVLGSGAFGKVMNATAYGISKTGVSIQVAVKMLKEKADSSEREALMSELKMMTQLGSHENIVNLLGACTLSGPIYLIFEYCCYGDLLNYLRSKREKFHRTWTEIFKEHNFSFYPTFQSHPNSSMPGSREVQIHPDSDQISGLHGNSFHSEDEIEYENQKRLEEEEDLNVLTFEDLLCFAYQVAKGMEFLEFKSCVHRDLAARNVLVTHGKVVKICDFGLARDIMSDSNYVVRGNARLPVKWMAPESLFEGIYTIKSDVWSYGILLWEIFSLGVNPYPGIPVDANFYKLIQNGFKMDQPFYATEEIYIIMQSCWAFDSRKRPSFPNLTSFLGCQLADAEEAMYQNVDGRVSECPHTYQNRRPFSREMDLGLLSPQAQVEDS

inhibition [1]: 13%
inhibition [3]: 0%
inhibition at 0.25 h, 10 µM (CYP2D6): 10.7%
remaining at 1 h, 1 µM [4]: 81.2%
half-life at 1 µM [5]: > 2.42 h
inhibition at 0.25 h, 10 µM (CYP3A4): 10.5%
half-life at 1 µM [6]: 1.79 h
SMILES: COc1cc(C(=O)NC2CCNCC2)ccc1Nc1nc(Nc2ccccc2P(C)(C)=O)c2cc[nH]c2n1
Activity (A549 [2]): 13.27%
Activity (A549 [7]): 6.37%
Activity (A549 [8]): 36.59%
Activity (A549 [9]): 4.72%
